Experimental data reported in PubChem BioAssay (NCI).
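Method: 48-hour compound exposure of cells in 96-well plates, five concentrations, linear interpolation of endpoints. TGI is the concentration that stops growth completely.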

Experiments:
Assay in all cases: NCI tumour cell line growth inhibition, 48 h
[1] = system: PC-3 prostate
[2] = system: 786-0 renal
[3] = system: A549 NSCLC
[4] = system: ACHN renal
[5] = system: IGROV1 ovarian
[6] = system: SNB-19 CNS
[7] = system: NCI-H522 lung
[8] = system: U251 CNS
[9] = system: HOP-92 NSCLC
[10] = system: T-47D breast
[11] = system: UACC-62 melanoma
[12] = system: COLO 205 colon
[13] = system: MDA-MB-231 breast
[14] = system: DU-145 prostate
[15] = system: SK-MEL-2 melanoma
[16] = system: BT-549 breast
[17] = system: SK-MEL-5 melanoma
[18] = system: UACC-257 melanoma
[19] = system: K-562 leukemia
[20] = system: CAKI-1 renal
[21] = system: MALME-3M melanoma
[22] = system: NCI-H460 lung
[23] = system: EKVX NSCLC
[24] = system: SR leukemia
[25] = system: SK-MEL-28 melanoma
[26] = system: UO-31 renal
[27] = system: HS 578T breast
[28] = system: CCRF-CEM leukemia
[29] = system: SF-268 CNS
[30] = system: NCI/ADR-RES ovarian
[31] = system: TK-10 renal
[32] = system: SN12C renal
[33] = system: HCT-15 colon
[34] = system: A498 renal
[35] = system: SK-OV-3 ovarian
[36] = system: NCI-H226 lung
[37] = system: MOLT-4 leukemia
[38] = system: HCC-2998 colon
[39] = system: SNB-75 CNS
[40] = system: MDA-N
[41] = system: HCT-116 colon
[42] = system: LOX IMVI melanoma
[43] = system: HL-60(TB) leukemia
[44] = system: MCF7 breast
[45] = system: OVCAR-5 ovarian
[46] = system: SW-620 colon
[47] = system: M14 melanoma
[48] = system: SF-539 CNS
[49] = system: OVCAR-4 ovarian
[50] = system: HT29 colon
[51] = system: MDA-MB-435
[52] = system: OVCAR-3 ovarian
[53] = system: RPMI-8226 leukemia
[54] = system: HOP-62 NSCLC
[55] = system: OVCAR-8 ovarian
[56] = system: RXF 393 renal
[57] = system: KM12 colon
[58] = system: SF-295 CNS
[59] = system: NCI-H23 lung
[60] = system: DLD-1 colon
[61] = system: DMS 114 small cell lung
[62] = system: SNB-78 CNS
[63] = system: LXFL 529 NSCLC
[64] = system: DMS 273 small cell lung
[65] = system: HOP-18 NSCLC
[66] = system: KM20L2 colon
[67] = system: M19-MEL melanoma

Measured: TGI

N=c1oc2ccc(Cl)cc2cc1C(=O)NCc1ccccc1
> 95 µM: [39]
36.8 µM: [43]
> 54 µM: [28]
> 56.7 µM: [37]
> 80.5 µM: [27]
> 70.4 µM: [19]
not listed: [60] | [61] | [62] | [63] | [64] | [65] | [66] | [67]
> 100 µM: all other assays above

O=C(O)CCSC(=O)Nc1cccc([N+](=O)[O-])c1
64.8 µM: [29]
not listed: [1] | [7] | [9] | [10] | [11] | [13] | [14] | [16] | [17] | [21] | [27] | [30] | [35] | [36] | [40] | [44] | [45] | [51] | [65] | [66] | [67]
> 100 µM: all other assays above

O=C(/C=C/c1cccs1)c1cccc(C(=O)/C=C/c2cccs2)n1
6.54 µM: [37]
7.34 µM: [42]
> 68.5 µM: [29]
15.6 µM: [46]
19.6 µM: [55]
> 34.1 µM: [50]
> 86.9 µM: [56]
> 90.6 µM: [59]
21.5 µM: [48]
> 85 µM: [6]
11.3 µM: [41]
8.51 µM: [28]
16 µM: [53]
38.2 µM: [2]
> 66.3 µM: [57]
> 58.8 µM: [32]
43 µM: [43]
> 24.6 µM: [24]
> 75.8 µM: [8]
> 94.8 µM: [27]
not listed: [60] | [61] | [62] | [63] | [64] | [65] | [66] | [67]
> 100 µM: all other assays above

O=S1c2ccccc2N=C(c2ccc(Cl)cc2)CC1c1cccs1 (centres undefined)
25.9 µM: [42]
27.5 µM: [46]
36.9 µM: [17] | [38]
41 µM: [12]
39 µM: [67]
45.2 µM: [6]
98.7 µM: [37]
61.3 µM: [45]
71.1 µM: [65]
17.3 µM: [52]
> 100 µM: [3] | [4] | [62] | [20] | [21] | [22] | [23] | [29] | [31] | [34] | [36] | [39] | [54]
61 µM: [19]
33.8 µM: [57]
85.4 µM: [35]
47.6 µM: [56]
28.2 µM: [2] | [64]
64.1 µM: [11]
38.4 µM: [25] | [55]
35.7 µM: [5]
24.9 µM: [60]
56.2 µM: [53]
28.9 µM: [8]
24.3 µM: [41]
86.5 µM: [28]
38 µM: [32]
83.5 µM: [7]
43.1 µM: [24]
29.1 µM: [33]
49.4 µM: [50]
39.5 µM: [61] | [58]
32.5 µM: [48]
85.3 µM: [59]
57.2 µM: [49]
63.5 µM: [18]
37.4 µM: [47]
51.6 µM: [26]
72.5 µM: [9]
59.6 µM: [66]
45.1 µM: [43]
